Laboratory results reported in PMC9266822, “Thermal Shift Assay for Small GTPase Stability Screening: Evaluation and Suitability” (International Journal of Molecular Sciences, 2022).
“Also recorded” adds a separate entry of the source.

What was measured:
KRAS V14I [1] = system: T1, KRAS V14I; experiment: SYPRO Orange / ANS thermal ramping assay; format: binding; conditions: KRAS V14I 10 µM, 1 mM MgCl2; 100 µM ATP
T1 construct: KRAS V14I (residues 1-169) lacking the C terminal residues; made in house
Method: (§1) SYPRO Orange and ANS assays were performed using a one-step protocol, where the samples (8 µL) and SYPRO Orange/ANS solution (12 µL) were combined prior to the first heating step. The samples were incubated for 3 min at each temperature, followed by fluorescence signal measurement. SYPRO Orange was used at 5× (stock 5000×) and ANS at 10 µM final concentration.
Thermal stability curves for KRAS WT, G12C, G13D, and Q61R (0–30 µM) were monitored both with SYPRO Orange and ANS in an assay buffer with or without 1 mM MgCl2. In addition, HRAS, NRAS, KRAS V14I, RhoA, and Gαi were studied at 10 µM concentration. KRAS G13D (3 µM) was assayed with SYPRO Orange in thermal ramping in combination with 0–1000 µM GDP, 1000 µM GTP, and 1000 µM ATP in a buffer supplemented with 1 mM MgCl2. […]

KRAS G13D [2] = system: T2, KRAS G13D; experiment: SYPRO Orange thermal ramping assay; format: binding, human; conditions: KRAS G13D 3 µM, 1 mM MgCl2, GDP 1 µM, ATP 1 mM
T2 construct: GG-Hs.KRAS4b (2-188) G13D; His6-MBP (N, cleaved yes); made in house; host or cells: E. coli
Method: as §1
Thermal stability curves for KRAS WT, G12C, G13D, and Q61R (0–30 µM) were monitored both with SYPRO Orange and ANS in an assay buffer with or without 1 mM MgCl2. In addition, HRAS, NRAS, KRAS V14I, RhoA, and Gαi were studied at 10 µM concentration. KRAS G13D (3 µM) was assayed with SYPRO Orange in thermal ramping in combination with 0–1000 µM GDP, 1000 µM GTP, and 1000 µM ATP in a buffer supplemented with 1 mM MgCl2. Additionally, 10 µM HRAS, NRAS, KRAS V14I, Ac-KRAS iMet-KRAS, RhoA, and Gαi were studied without additional nucleotides or with 10 or 100 µM GDP/GTP in an assay buffer supplemented with 1 mM MgCl2 or 1 mM EDTA.

NRAS, HRAS, RhoA, Gαi = experiment: Protein-Probe thermal stability assay, additional GTPases; format: binding; conditions: any tested condition or protein; data not shown
Method: All Protein-Probe assays were performed using a sample volume of 8 μL and a two-step assay protocol. […] Assays were performed in a sample buffer containing 10 mM HEPES (pH 7.5), 0.001% Triton X-100 and 20 mM NaCl and the buffer was supplemented with 0-10 mM MgCl2, 0-1 mM CaCl2, or 0-1 mM EDTA, depending on the assay. […] Depending on the studied protein, thermal ramping was performed up to 95 °C, using 5 °C intervals. At each temperature, samples were incubated for 3 min before the Protein-Probe solution was added, and the TRL-signals at 620 nm were monitored at RT.

KRAS G12C = system: T3, KRAS G12C; experiment: Protein-Probe thermal stability assay; format: binding, human; conditions: Table S1; KRAS G12C 50 nM; EDTA 0.5 mM, MgCl2 1 mM
T3 construct: GG-Hs.KRAS4b (2-188) G12C; His6-MBP (N, cleaved yes); made in house; host or cells: E. coli
Method: All Protein-Probe assays were performed using a sample volume of 8 µL and a two-step assay protocol. […] Assays were performed in a sample buffer containing 10 mM HEPES (pH 7.5), 0.001% Triton X-100 and 20 mM NaCl and the buffer was supplemented with 0–10 mM MgCl2, 0–1 mM CaCl2, or 0–1 mM EDTA, depending on the assay. In all thermal stability assays, samples were preincubated at RT for 10 min (nucleotides) or 30 min (inhibitors) prior to thermal measurements. […] At each temperature, samples were incubated for 3 min before the Protein-Probe solution was added, and the TRL-signals at 620 nm were monitored at RT. […]
(§2) All inhibitor assays were performed with a buffer containing 1 mM MgCl2. […]

RhoA = system: T4, RhoA; experiment: Protein-Probe thermal stability assay; format: binding; conditions: Table S1; RhoA 1 µM; additive concentrations not given (100 µM GDP/GTP)
T4 construct: and RhoA (1-182) were gen-; His6-MBP (N, cleaved yes); made in house; host or cells: E. coli
Method: (§3) All Protein-Probe assays were performed using a sample volume of 8 µL and a two-step assay protocol. Detection was performed at room temperature (RT) by adding 65 µL Protein-Probe solution: 4 µM HIDC (1,1,3,3,3′,3′-hexamethylindodicarbocyanine iodide) and 1–1.5 nM Eu^3+-labeled peptide probe (NH2-[…]). Assays were performed in a sample buffer containing 10 mM HEPES (pH 7.5), 0.001% Triton X-100 and 20 mM NaCl and the buffer was supplemented with 0–10 mM MgCl2, 0–1 mM CaCl2, or 0–1 mM EDTA, depending on the assay. In all thermal stability assays, samples were preincubated at RT for 10 min (nucleotides) or 30 min (inhibitors) prior to thermal measurements. Depending on the studied protein, thermal ramping was performed up to 95 °C, using 5 °C intervals. At each temperature, samples were incubated for 3 min before the Protein-Probe solution was added, and the TRL-signals at 620 nm were monitored at RT.
(§4) In addition, KRAS WT was monitored in a sample buffer supplemented with 0–10 mM MgCl2 or 0–1 mM CaCl2.
KRAS G13D (50 nM) was monitored in the presence of 0–900 nM GDP, and KRAS WT, G13D, G12D, and Q61R (50 nM) were monitored with 10 and/or 100 µM GDP, GTP, and ATP in buffer supplemented with 1 mM MgCl2. KRAS WT (50 nM) was also monitored with 10 µM GDP in a buffer without MgCl2 or supplemented with 0–1 mM CaCl2 or 1 mM EDTA. […] In addition, melting curves for KRAS WT (50 nM) were measured with GTP analogs GTPγS, GMPPNP, and GMPPCP (0–300 µM), and GMP (0–1000 µM) in the presence of 1 mM MgCl2.

KRAS G12D = experiment: Protein-Probe thermal stability assay; format: binding, human; conditions: Table S1; KRAS G12D 50 nM; MgCl2 1 mM, GDP 10 mM as headed
Method: as §3, §4
(§5) KRAS G13D (50 nM) was monitored in the presence of 0–900 nM GDP, and KRAS WT, G13D, G12D, and Q61R (50 nM) were monitored with 10 and/or 100 µM GDP, GTP, and ATP in buffer supplemented with 1 mM MgCl2. KRAS WT (50 nM) was also monitored with 10 µM GDP in a buffer without MgCl2 or supplemented with 0–1 mM CaCl2 or 1 mM EDTA. HRAS (2 µM), NRAS (2 µM), RhoA (2 µM), and Gαi (50 nM) were monitored with 100 µM GDP, GTP, or ATP in buffers with or without 1 mM MgCl2 and 1 mM EDTA. In addition, melting curves for KRAS WT (50 nM) were measured with GTP analogs GTPγS, GMPPNP, and GMPPCP (0–300 µM), and GMP (0–1000 µM) in the presence of 1 mM MgCl2.
All inhibitor assays were performed with a buffer containing 1 mM MgCl2.
(§6) Assays were performed using three DARPins alone or in combination with small molecular inhibitors. […] The thermal curves were monitored after an additional 30 min incubation at RT.

KRAS WT = system: T5, KRAS WT; experiment: Protein-Probe thermal stability assay; format: binding, human; conditions: for Thermal Stability (°C): Table S1
T5 construct: His6-MBP (N, cleaved yes); made in house; host or cells: E. coli
Method: as §3, §4
as §5, with “KRAS G13D (50 nM) was monitored in the presence of 0–900 nM GDP, and KRAS WT, G13D, G12D, and Q61R (50 nM) were monitored with 10 and/or 100 µM GDP, GTP, and ATP in buffer supplemented with 1 mM MgCl2.” left out
as §2

KRAS V14I [3] = system: T1, KRAS V14I; experiment: Protein-Probe thermal stability assay; format: binding; conditions: Table S1; KRAS V14I 1 µM; MgCl2
Method: as §3

KRAS Q61L = system: T6, KRAS Q61L; experiment: Protein-Probe thermal stability assay; format: binding, human; conditions: Table S1; KRAS Q61L 50 nM; MgCl2 1 mM
T6 construct: GG-Hs.KRAS4b (2-188) Q61L; His6-MBP (N, cleaved yes); made in house; host or cells: E. coli
Method: as §3, §4, §6

KRAS G13D [4] = system: T2, KRAS G13D; experiment: Protein-Probe thermal stability assay; format: binding, human
Method: as §3, §4, §5, §6

KRAS Q61R = system: T7, KRAS Q61R; experiment: Protein-Probe thermal stability assay; format: binding, human
T7 construct: GG-Hs.KRAS4b (2-188) Q61R; His6-MBP (N, cleaved yes); made in house; host or cells: E. coli
Method: as §3, §4, §5, §6

Ac-KRAS = system: T8, Ac-KRAS; experiment: Protein-Probe thermal stability assay; format: binding, human; conditions: Table S1; Ac-KRAS 1 µM; MgCl2
T8 construct: Truncated (aa 1–169) iMet-
Method: as §3, §4

iMet-KRAS = system: T9, iMet-KRAS; experiment: Protein-Probe thermal stability assay; format: binding, human; conditions: Table S1; iMet-KRAS 1 µM; MgCl2
T9 construct: iMet-KRAS (G-Hs.KRAS4b(1-169)) (Addgene #159539)
Method: as §3, §4

Gαi = experiment: Protein-Probe thermal stability assay; format: binding
Method: as §3, §4, §5

Structure (SMILES): Nc1ncnc2c1ncn2[C@@H]1O[C@H](COP(=O)(O)OP(=O)(O)OP(=O)(O)O)[C@@H](O)[C@H]1O [ATP, adenosine-5’-triphosphate]
- effect on stability (KRAS V14I [1]): no effect
- stabilization (KRAS G13D [2]): no effect; also recorded: no KRAS G13D stabilization
- stabilization (NRAS, HRAS, RhoA, Gαi): no stabilization

Structure (SMILES): [Cl-].[Cl-].[Mg+2] [MgCl2]
- Thermal Stability (°C) (KRAS G12C): 61.8 ± 0.5 °C
- Thermal Stability (°C) (RhoA): 61.3 ± 0.3 °C
- Thermal Stability (°C) (KRAS G12D): 60.6 ± 0.5 °C
- stability increase compared to 1 mM EDTA (KRAS WT; KRAS WT 50 nM, additive 1 mM): 9.1 °C
- Tm (KRAS WT; KRAS WT 100 nM, 10 mM MgCl2): 64.7 ± 0.5 °C
- increase of thermal stability over that without MgCl2 (KRAS WT; KRAS WT 100 nM, 1 or 10 mM MgCl2): approximately 10 °C
- Tm (KRAS WT; KRAS WT 100 nM, additive 1 mM): 60.1 ± 0.3 °C
- Thermal Stability (°C) (KRAS WT; KRAS WT 50 nM, additive as headed: EDTA 0.5 mM, MgCl2 1 mM, GDP 10 mM, GTP 10 µM, GTPγS 10 µM, GMP-PNP 300 µM, GMP-PCP 300 µM, GMP 1 mM): 61.3 ± 0.5 °C
- Thermal Stability (°C) (KRAS WT; KRAS WT 1 µM, MgCl2): 54.4 ± 0.6 °C
- Thermal Stability (°C) (KRAS V14I [3]): 47.5 ± 0.2 °C
- Thermal Stability (°C) (KRAS Q61L): 60.4 ± 0.5 °C
- Tm (KRAS G13D [4]; KRAS G13D 100 nM, additive 1 mM): 47.7 ± 0.4 °C
- Thermal Stability (°C) (KRAS G13D [4]; Table S1, KRAS G13D 50 nM, EDTA 0.5 mM, MgCl2 1 mM, GDP 10 mM, GTP 10 µM as headed): 50.7 ± 0.2 °C
- Tm (KRAS Q61R; KRAS Q61R 100 nM, additive 1 mM): 66.5 ± 0.5 °C
- Thermal Stability (°C) (KRAS Q61R; Table S1, KRAS Q61R 50 nM, EDTA 0.5 mM, MgCl2 1 mM, GDP 10 mM, GTP 10 µM as headed): 71.9 ± 0.6 °C
- Thermal Stability (°C) (Ac-KRAS): 66.0 ± 1.0 °C
- Thermal Stability (°C) (iMet-KRAS): 66.9 ± 0.2 °C
- effect of Mg2+ on thermal stability (Gαi): ~ 4.2 °C
